# In BindingDB's records for patent US20250313563 (The Broad Institute, 2025):
# Several values for one entry are separate records, joined by “and”; a condition that tells them apart may be missing. Equal entries are not always repeated.
# Columns and labels:
# [1] = target: Glycogen synthase kinase-3 alpha (Homo sapiens, UniProt P49840); experiment: TR-FRET Assay
# Method in brief: (§1)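 Kinase activity, measured after a 30-minute compound preincubation, was stopped with EDTA and quantified by TR-FRET using a Tb-labelled pSer641 antibody paired with streptavidin-d2.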
# [2] = target: Glycogen synthase kinase-3 beta (Homo sapiens, UniProt P49841); experiment: TR-FRET Assay
# Method in brief: as §1
# Glycogen synthase kinase-3 beta, sequence (P49841 whole entry): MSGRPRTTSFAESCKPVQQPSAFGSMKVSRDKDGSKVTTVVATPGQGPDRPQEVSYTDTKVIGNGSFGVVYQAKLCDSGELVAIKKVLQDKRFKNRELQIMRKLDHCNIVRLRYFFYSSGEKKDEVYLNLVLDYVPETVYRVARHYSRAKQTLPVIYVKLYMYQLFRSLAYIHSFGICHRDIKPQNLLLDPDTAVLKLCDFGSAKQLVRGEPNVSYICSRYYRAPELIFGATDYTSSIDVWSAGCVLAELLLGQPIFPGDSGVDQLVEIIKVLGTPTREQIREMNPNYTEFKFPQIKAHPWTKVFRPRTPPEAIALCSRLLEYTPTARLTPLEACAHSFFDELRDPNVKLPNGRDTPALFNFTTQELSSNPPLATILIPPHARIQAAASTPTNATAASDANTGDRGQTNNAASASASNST
# Glycogen synthase kinase-3 alpha, sequence (P49840 whole entry): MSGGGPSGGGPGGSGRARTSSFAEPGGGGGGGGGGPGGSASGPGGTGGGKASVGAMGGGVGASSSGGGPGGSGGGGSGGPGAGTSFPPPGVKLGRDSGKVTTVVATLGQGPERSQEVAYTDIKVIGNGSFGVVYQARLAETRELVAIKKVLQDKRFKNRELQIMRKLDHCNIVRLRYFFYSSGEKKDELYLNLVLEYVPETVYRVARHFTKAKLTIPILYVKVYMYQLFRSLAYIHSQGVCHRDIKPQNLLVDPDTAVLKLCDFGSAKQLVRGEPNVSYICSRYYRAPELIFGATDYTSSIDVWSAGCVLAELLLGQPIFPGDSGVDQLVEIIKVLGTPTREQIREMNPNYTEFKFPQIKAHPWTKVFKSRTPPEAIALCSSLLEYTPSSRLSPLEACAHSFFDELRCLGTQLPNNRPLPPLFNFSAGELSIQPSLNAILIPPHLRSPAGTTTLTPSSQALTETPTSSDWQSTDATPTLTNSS
SMILES,IC50 [1],IC50 [2]
"CC[C@]1(c2cccc(-c3cnn(C)c3)c2)C2=C(CC(C)(C)CC2=O)NC2N=NC(C(F)(F)F)=C21 (stereo partly drawn) [US20250313563, Compound 811565]",< 100 nM,< 100 nM
"CC[C@@]1(c2cccc(-c3cnn(C)c3)c2)C2=C(CC(C)(C)CC2=O)NC2N=NC(C(F)(F)F)=C21 (stereo partly drawn) [US20250313563, Compound 811567]",100 to 1000 nM,100 to 1000 nM
"CC(C)(C)CC1=C2C(N=N1)NC1=C(C(=O)CC(C)(C)C1)[C@]21CCCc2ccccc21 (stereo partly drawn) [US20250313563, Compound 811595]",100 to 1000 nM,< 100 nM
"CC(C)(C)CC1=C2C(N=N1)NC1=C(C(=O)CC(C)(C)C1)[C@@]21CCCc2ccccc21 (stereo partly drawn) [US20250313563, Compound 811596]",1000 to 5000 nM,100 to 1000 nM
"CCC1(c2cccc(-c3cnn(C)c3)c2)C2=CN=NC2NC2=C1C(=O)CC(C)C2 (stereo not drawn) [US20250313563, Compound 816752]",< 100 nM,1000 to 5000 nM
"CC1(C)CC(=O)C2=C(C1)NC1=C(CN=N1)C21CCc2c(Cl)cccc21 (stereo not drawn) [US20250313563, Compound 816795]",< 100 nM,100 to 1000 nM
"CCC1(c2ccccc2)C2=C(N=NC2)NC2=C1C(=O)CC(C)(C(F)(F)F)C2 (stereo not drawn) [US20250313563, Compound 816796]",100 to 1000 nM,1000 to 5000 nM
"CC1(C)CC(=O)C2=C(C1)NC1=C(CN=N1)[C@@]2(C)c1cc(C(F)(F)F)ccc1F [US20250313563, Compound 816797]",1000 to 5000 nM,> 5000 nM
"CC1(C)CC(=O)C2=C(C1)NC1=C(CN=N1)[C@]2(C)c1cc(C(F)(F)F)ccc1F [US20250313563, Compound 816798]",< 100 nM,100 to 1000 nM
"CC[C@@]1(c2cccc(N3CCCCC3)c2)C2=C(CC(C)(C)CC2=O)NC2N=NC(C(F)(F)F)=C21 (stereo partly drawn) [US20250313563, Compound 816799]",100 to 1000 nM,1000 to 5000 nM
"CC[C@]1(c2cccc(N3CCCCC3)c2)C2=C(CC(C)(C)CC2=O)NC2N=NC(C(F)(F)F)=C21 (stereo partly drawn) [US20250313563, Compound 816800]",< 100 nM,< 100 nM
"CC1(C)CC(=O)C2=C(C1)NC1N=NC(CC(F)(F)F)=C1[C@@]21CCc2c(F)cccc21 (stereo partly drawn) [US20250313563, Compound 816837]",1000 to 5000 nM,100 to 1000 nM
"CC1(C)CC(=O)C2=C(C1)NC1N=NC(CC(F)(F)F)=C1[C@]21CCc2c(F)cccc21 (stereo partly drawn) [US20250313563, Compound 816838]",100 to 1000 nM,100 to 1000 nM
"CC1(C)CC(=O)C2=C(C1)NC1N=NC(C3(C(F)(F)F)CC3)=C1[C@]21CCc2c(F)cccc21 (stereo partly drawn) [US20250313563, Compound 816840]",1000 to 5000 nM,100 to 1000 nM
"CCC1(c2cccc(-c3cnn(C)c3)c2)C2=CN=NC2NC2=C1C(=O)CC(C)(C)C2 (stereo not drawn) [US20250313563, Compound 816871]",< 100 nM,100 to 1000 nM
"CC[C@@]1(c2ccccc2)C2=CN=NC2NC2=C1C(=O)C[C@](C)(COC)C2 (stereo partly drawn) [US20250313563, Compound 816873]",100 to 1000 nM,1000 to 5000 nM
"CC[C@]1(c2ccccc2)C2=CN=NC2NC2=C1C(=O)C[C@](C)(COC)C2 (stereo partly drawn) [US20250313563, Compound 816875]",100 to 1000 nM,1000 to 5000 nM
"CC[C@]1(c2ccccc2)C2=CN=NC2NC2=C1C(=O)C[C@]1(CCCOC1)C2 (stereo partly drawn) [US20250313563, Compound 816878]",100 to 1000 nM,1000 to 5000 nM
"CC[C@]1(c2ccccc2)C2=CN=NC2NC2=C1C(=O)C[C@@]1(CCCOC1)C2 (stereo partly drawn) [US20250313563, Compound 816879]",100 to 1000 nM,100 to 1000 nM
"CC[C@@]1(c2ccccc2)C2=CN=NC2NC2=C1C(=O)C[C@]1(CCOC1)C2 (stereo partly drawn) [US20250313563, Compound 816881]",100 to 1000 nM,1000 to 5000 nM
"CC[C@]1(c2ccccc2)C2=CN=NC2NC2=C1C(=O)C[C@]1(CCOC1)C2 (stereo partly drawn) [US20250313563, Compound 816884]",100 to 1000 nM,1000 to 5000 nM
"CC[C@]1(c2cccc(N3CCOCC3)c2)C2=C(CC(C)(C)CC2=O)NC2N=NC(C(F)(F)F)=C21 (stereo partly drawn) [US20250313563, Compound 816885]",< 100 nM,< 100 nM
"CC[C@@]1(c2cccc(N3CCOCC3)c2)C2=C(CC(C)(C)CC2=O)NC2N=NC(C(F)(F)F)=C21 (stereo partly drawn) [US20250313563, Compound 816886]",1000 to 5000 nM,1000 to 5000 nM
"CCC1(c2cccc(CN3CCCCC3)c2)C2=CN=NC2NC2=C1C(=O)CC(C)(C)C2 (stereo not drawn) [US20250313563, Compound 819560]",1000 to 5000 nM,> 5000 nM
"CCC1(c2cccc(S(C)(=O)=O)c2)C2=CN=NC2NC2=C1C(=O)CC(C)(C)C2 (stereo not drawn) [US20250313563, Compound 819561]",< 100 nM,< 100 nM
"CC1(C)CC(=O)C2=C(C1)NC1=C(CN=N1)C2(C)CCc1ccccc1 (stereo not drawn) [US20250313563, Compound 819562]",1000 to 5000 nM,> 5000 nM
"CCC1(CCc2ccccc2)C2=C(N=NC2)NC2=C1C(=O)CC(C)(C)C2 (stereo not drawn) [US20250313563, Compound 819563]",1000 to 5000 nM,> 5000 nM

SMILES,IC50 [1],IC50 [2]
"CCC1(c2cccc(C(F)F)c2)C2=CN=NC2NC2=C1C(=O)CC(C)(C)C2 (stereo not drawn) [US20250313563, Compound 819564]",< 100 nM,< 100 nM
"CCC1(c2cccc(Br)c2)C2=CN=NC2NC2=C1C(=O)CC(C(F)(F)F)C2 (stereo not drawn) [US20250313563, Compound 819565]",100 to 1000 nM,100 to 1000 nM
"CC[C@]1(c2ccccc2)C2=CN=NC2NC2=C1C(=O)C[C@@](C)(C(F)(F)F)C2 (stereo partly drawn) [US20250313563, Compound 819568]",100 to 1000 nM,100 to 1000 nM
"CC[C@@]1(c2ccccc2)C2=CN=NC2NC2=C1C(=O)C[C@@](C)(C(F)(F)F)C2 (stereo partly drawn) [US20250313563, Compound 819569]",100 to 1000 nM,1000 to 5000 nM
"CC[C@]1(c2ccccc2)C2=CN=NC2NC2=C1C(=O)CC1(CCC1)C2 (stereo partly drawn) [US20250313563, Compound 819573]",< 100 nM,100 to 1000 nM
"CC[C@]1(c2cccc(N3CCCC3)c2)C2=C(CC(C)(C)CC2=O)NC2N=NC(C(F)(F)F)=C21 (stereo partly drawn) [US20250313563, Compound 819574]",< 100 nM,< 100 nM
"CC[C@@]1(c2cccc(-c3cnn(C)c3)c2)C2=CN=NC2NC2=C1C(=O)CC(C)(C)C2 (stereo partly drawn) [US20250313563, Compound 819576]",100 to 1000 nM,1000 to 5000 nM
"CC[C@]1(c2cccc(-c3cnn(C)c3)c2)C2=CN=NC2NC2=C1C(=O)CC(C)(C)C2 (stereo partly drawn) [US20250313563, Compound 819577]",100 to 1000 nM,100 to 1000 nM
"CCC1(c2cccc(C(F)(F)F)c2)C2=CN=NC2NC2=C1C(=O)NC(C)(C)C2F (stereo not drawn) [US20250313563, Compound 819622]",< 100 nM,100 to 1000 nM
"CC[C@]1(c2cccc(C3CCOCC3)c2)C2=CN=NC2NC2=C1C(=O)CC(C)(C)C2 (stereo partly drawn) [US20250313563, Compound 819638]",100 to 1000 nM,100 to 1000 nM
"CC[C@@]1(c2cccc(C3CCOCC3)c2)C2=CN=NC2NC2=C1C(=O)CC(C)(C)C2 (stereo partly drawn) [US20250313563, Compound 819639]",1000 to 5000 nM,> 5000 nM
"CCC1(c2cccc(C(F)(F)F)c2)C2=CN=NC2NC2=C1C(=O)N(C)C(C)(C)C2 (stereo not drawn) [US20250313563, Compound 823130]",< 100 nM,100 to 1000 nM
"CC[C@]1(c2cccc(-c3cnn(C)c3)c2)C2=CN=NC2NC2=C1C(=O)C[C@@H](C)C2 (stereo partly drawn) [US20250313563, Compound 823721]",100 to 1000 nM,100 to 1000 nM
"CC[C@@]1(c2cccc(-c3cnn(C)c3)c2)C2=CN=NC2NC2=C1C(=O)C[C@H](C)C2 (stereo partly drawn) [US20250313563, Compound 823724]",100 to 1000 nM,1000 to 5000 nM
"CCC1(c2cccc(C(F)(F)F)c2)C2=CN=NC2NC2=C1C(=O)N(C(C)C)CC2 (stereo not drawn) [US20250313563, Compound 825755]",< 100 nM,100 to 1000 nM
"CC1(C)CC(=O)C2=C(C1)NC1=C(CN=N1)C21CCOCC1 [US20250313563, Compound 826648]",100 to 1000 nM,100 to 1000 nM
"CC(=O)N1CCC2(CC1)C1=C(N=NC1)NC1=C2C(=O)CC(C)(C)C1 [US20250313563, Compound 826649]",100 to 1000 nM,1000 to 5000 nM
"CC1(C)CC(=O)C2=C(C1)NC1=C(CN=N1)C21CCCCC1 [US20250313563, Compound 826650]",< 100 nM,< 100 nM
"CCC1(c2cccc(CNC)c2)C2=CN=NC2NC2=C1C(=O)CC(C)(C)C2 (stereo not drawn) [US20250313563, Compound 826651]",1000 to 5000 nM,> 5000 nM
"CC[C@@]1(c2cccc(Br)c2)C2=CN=NC2NC2=C1C(=O)C[C@@H](C(F)(F)F)C2 (stereo partly drawn) [US20250313563, Compound 826652]",< 100 nM,100 to 1000 nM
"CC[C@]1(c2cccc(Br)c2)C2=CN=NC2NC2=C1C(=O)C[C@@H](C(F)(F)F)C2 (stereo partly drawn) [US20250313563, Compound 826653]",< 100 nM,100 to 1000 nM
"CC[C@@]1(c2cccc(Br)c2)C2=CN=NC2NC2=C1C(=O)C[C@H](C(F)(F)F)C2 (stereo partly drawn) [US20250313563, Compound 826654]",> 5000 nM,> 5000 nM
"CC[C@]1(c2cccc(Br)c2)C2=CN=NC2NC2=C1C(=O)C[C@H](C(F)(F)F)C2 (stereo partly drawn) [US20250313563, Compound 826655]",> 5000 nM,> 5000 nM
"CC1(C)CC(=O)C2=C(C1)NC1=C(CN=N1)C21CCOC1 (stereo not drawn) [US20250313563, Compound 826713]",100 to 1000 nM,100 to 1000 nM
"CN1CCC2(CC1)C1=C(N=NC1)NC1=C2C(=O)CC(C)(C)C1 [US20250313563, Compound 826714]",> 5000 nM,> 5000 nM
"CCC1(c2cccc(Br)c2)C2=C(CC(C)CC2=O)NC2N=NC(C(F)(F)F)=C21 (stereo not drawn) [US20250313563, Compound 826715]",< 100 nM,< 100 nM
"CC[C@]1(c2cccc(C(F)F)c2)C2=CN=NC2NC2=C1C(=O)CC(C)(C)C2 (stereo partly drawn) [US20250313563, Compound 826717]",< 100 nM and 100 to 1000 nM,< 100 nM and 1000 to 5000 nM
